IC50 data for 26 compounds are collected here from patent US8598202B2, “Aryl-hydroxyethylamino-pyrimidines and triazines as modulators of fatty acid amide hydrolase” (Janssen Pharmaceutica NV, priority 2008, dated 2013).

Experiment [1] addresses T1, FAAH (Homo sapiens, UniProt O00519).
T1 sequence (O00519 1-579): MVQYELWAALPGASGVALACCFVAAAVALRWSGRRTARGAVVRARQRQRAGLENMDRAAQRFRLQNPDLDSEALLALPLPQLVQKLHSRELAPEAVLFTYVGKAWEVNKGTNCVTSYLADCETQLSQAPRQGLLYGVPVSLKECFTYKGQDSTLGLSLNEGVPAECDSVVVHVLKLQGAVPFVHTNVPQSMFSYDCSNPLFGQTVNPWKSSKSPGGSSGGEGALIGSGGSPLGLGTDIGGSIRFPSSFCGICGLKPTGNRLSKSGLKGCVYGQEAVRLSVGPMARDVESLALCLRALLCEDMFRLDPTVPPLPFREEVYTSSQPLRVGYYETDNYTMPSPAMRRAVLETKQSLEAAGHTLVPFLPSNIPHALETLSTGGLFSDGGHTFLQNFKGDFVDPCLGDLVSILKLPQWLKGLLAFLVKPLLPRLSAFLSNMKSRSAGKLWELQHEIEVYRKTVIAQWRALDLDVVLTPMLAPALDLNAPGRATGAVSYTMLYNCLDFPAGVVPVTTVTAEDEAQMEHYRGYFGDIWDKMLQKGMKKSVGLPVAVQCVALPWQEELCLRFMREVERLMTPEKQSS
The experiment is described as follows: Assay Method 1: FAAH assay, 3H-anandamide hydrolysis in homogenate of T84 cells or SK-N-MC cells transfected with human FAAH.

In experiment [2] the target is T2, Rat FAAH-1 (Rattus norvegicus, UniProt P97612).
T2 sequence (P97612 1-579): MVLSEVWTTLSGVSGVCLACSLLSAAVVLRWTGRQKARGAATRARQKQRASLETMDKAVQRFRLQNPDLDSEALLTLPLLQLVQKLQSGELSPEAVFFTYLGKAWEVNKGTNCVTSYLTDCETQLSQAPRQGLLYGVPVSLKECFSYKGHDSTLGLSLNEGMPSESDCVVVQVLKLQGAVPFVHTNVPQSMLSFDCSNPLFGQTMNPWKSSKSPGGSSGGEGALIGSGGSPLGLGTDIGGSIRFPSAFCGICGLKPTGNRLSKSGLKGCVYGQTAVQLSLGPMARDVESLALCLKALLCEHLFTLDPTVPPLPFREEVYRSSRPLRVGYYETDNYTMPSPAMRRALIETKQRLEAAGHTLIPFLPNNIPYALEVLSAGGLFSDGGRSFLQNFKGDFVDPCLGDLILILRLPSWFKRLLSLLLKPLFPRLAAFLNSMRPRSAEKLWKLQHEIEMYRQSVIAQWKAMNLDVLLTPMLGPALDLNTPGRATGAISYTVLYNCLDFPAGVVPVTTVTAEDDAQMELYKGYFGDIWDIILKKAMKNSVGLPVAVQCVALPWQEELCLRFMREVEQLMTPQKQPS
The experiment is described as follows: Assay Method 2: rat FAAH-1 assay, 3H-anandamide hydrolysis in homogenate of SK-N-MC cells transfected with rat FAAH.
Description: The assay mixture consisted of 50 μL of the cell homogenate, 10 μL of the test compound, and 40 μL of anandamide [1-^3H-ethanolamine] (^3H-AEA, Perkin-Elmer, 10.3 Ci/mmol), which was added last, for a final tracer concentration of 80 nM. The reaction mixture was incubated at rt for 1 h. During the incubation, 96-well Multiscreen filter plates (catalog number MAFCNOB50; Millipore, Bedford, Mass., USA) were loaded with 25 μL of activated charcoal (Multiscreen column loader, catalog number MACL09625, Millipore) and washed once with 100 μL of MeOH. […] After the 1 h incubation, 60 μL of the reaction mixture were transferred to the charcoal plates, which were then assembled on top of the DYNEX plates using Centrifuge Alignment Frames (catalog number MACF09604, Millipore). The unbound labeled ethanolamine was centrifuged through to the bottom plate (5 min at 2000 rpm), which was preloaded with the scintillant, as described above. The plates were sealed and left at rt for 1 h before counting on a Hewlett Packard TopCount.

Each structure is given as a SMILES string. Structures can show the parent of a compound that is named as a salt.

On to `CC(C)Oc1ccc(-c2cc(NC[C@H](O)c3ccccc3)ncn2)cc1F` [Example 36, (1R)-2-({6-[3-Fluoro-4-(1-methylethoxy)phenyl]pyrimidin-4-yl}amino)-1-phenylethanol trifluoroacetic acid salt], for which the half-maximal inhibitory concentration (IC50) in experiment [1] was found to be 8 nM; in experiment [2], 20 nM.
As to `CN(C)c1ccc(-c2cc(NC[C@H](O)c3ccccc3)ncn2)cc1` [Example 65, (1R)-2-({6-[4-(Dimethylamino)phenyl]pyrimidin-4-yl}amino)-1-phenylethanol], the values for the half-inhibitory concentration (IC50) in experiment [1] and in experiment [2] were 38 nM and 6000 nM, respectively.
For `O=C(c1ccccc1)c1ccc(-c2cc(NC[C@H](O)c3ccccc3)ncn2)cc1` [Example 57, [4-(6-{[(2R)-2-Hydroxy-2-phenylethyl]amino}pyrimidin-4-yl)phenyl](phenyl)methanone trifluoroacetic acid salt], in that order: 29 nM and 535 nM.
Turning to `OC(CNc1cc(-c2ccc(OC(F)(F)F)cc2)ncn1)c1ccc(C(F)(F)F)cc1` (stereo not shown) [Example 108, 2-[(6-{4-[(Trifluoromethyl)oxy]phenyl}pyrimidin-4-yl)amino]-1-[4-(trifluoromethyl)phenyl]ethanol], the IC50 in experiment [1] turned out to be 110 nM; in experiment [2], 150 nM.
As to `C[C@H]([C@H](O)c1ccccc1)N(C)c1cc(-c2ccc(OC(F)(F)F)cc2)ncn1` [Example 120, (1R,2R)-2-[Methyl(6-{4-[(trifluoromethyl)oxy]phenyl}pyrimidin-4-yl)amino]-1-phenylpropan-1-ol], the concentration for half-maximal inhibition (IC50) in experiment [1] and in experiment [2] was above 10000 nM throughout.
Consider `O[C@@H](CNc1cc(-c2ccc(Cl)c(Cl)c2)nc(C2CC2)n1)c1ccccc1` [Example 136, (1R)-2-{[2-Cyclopropyl-6-(3,4-dichlorophenyl)pyrimidin-4-yl]amino}-1-phenylethanol], for which the half-maximal inhibitory concentration (IC50) in experiment [1] stood at 84 nM; in experiment [2] it was 340 nM.
For the compound `CCOc1ccc(-c2cc(NC[C@H](O)c3ccccc3)ncn2)cn1` [Example 64, (1R)-2-{[6-(6-Ethoxypyridin-3-yl)pyrimidin-4-yl]amino}-1-phenylethanol], the IC50 in experiment [1] worked out at 50 nM; in experiment [2] it was 220 nM.
As to `CCc1ccc(-c2cc(NCC(O)c3ccccc3)ncn2)cc1` (stereo not shown) [Example 6, 2-{[6-(4-Ethylphenyl)pyrimidin-4-yl]amino}-1-phenylethanol], the half-maximal inhibitory concentration (IC50) is 33 nM in experiment [1] and 233 nM in experiment [2].
For the compound `O[C@@H](CNc1cc(-c2ccc(C(F)(F)F)c(Cl)c2)ncn1)c1ccc(Cl)c(F)c1` [Example 146, (1R)-1-(4-Chloro-3-fluoro-phenyl)-2-[6-(3-chloro-4-trifluoromethyl-Phenyl)-pyrimidin-4-ylamino]-ethanol], the half-maximal inhibitory concentration (IC50) in experiment [1] worked out at 26 nM; in experiment [2] it was 4 nM.
Take `OC(CNc1cc(-c2ccc(OC(F)(F)F)cc2)ncn1)c1cccnc1` (stereo not shown) [Example 124, 1-Pyridin-3-yl-2-[(6-{4-[(trifluoromethyl)oxy]phenyl}pyrimidin-4-yl)amino]ethanol]: the figures for the concentration for half-maximal inhibition (IC50) in experiment [1] and in experiment [2] were 800 nM and 4000 nM, respectively.
Turning to `OC(CNc1cc(-c2ccc(C(F)(F)F)c(Cl)c2)ncn1)c1cccc(OC(F)(F)F)c1` (stereo not shown) [Example 130, 2-({6-[3-Chloro-4-(trifluoromethyl)phenyl]pyrimidin-4-yl}amino)-1-[3-(trifluoromethoxy)phenyl]ethanol trifluoroacetic acid salt], the half-maximal inhibitory concentration (IC50) in experiment [1] was found to be 120 nM; in experiment [2] it was 15 nM.
As for `CCCCOc1ccc(-c2cc(NC[C@H](O)c3ccccc3)ncn2)cc1F` [Example 33, (1R)-2-{[6-(4-Butoxy-3-fluorophenyl)pyrimidin-4-yl]amino}-1-phenylethanol trifluoroacetic acid salt], the 50% inhibitory concentration (IC50) worked out at 270 nM in experiment [1] and 2000 nM in experiment [2].
As to `OC(CNc1cc(-c2ccc(C(F)(F)F)c(Cl)c2)ncn1)c1cc(-c2ccc(Cl)cc2Cl)no1` (stereo not shown) [Example 215, 2-[6-(3-Chloro-4-trifluoromethyl-phenyl)-pyrimidin-4-ylamino]-1-[3-(2,4-dichloro-phenyl)-isoxazol-5-yl]-ethanol], the IC50 came out at 240 nM in experiment [1] and 1000 nM in experiment [2].
For `O=S(=O)(c1ccc(-c2cc(NC[C@H](O)c3ccccc3)ncn2)cc1)N1CCCC1` [Example 80, (1R)-1-Phenyl-2-({6-[4-(Pyrrolidin-1-ylsulfonyl)phenyl]pyrimidin-4-yl}amino)ethanol], the figures for the half-inhibitory concentration (IC50) in experiment [1] and in experiment [2] were 68 nM and 665 nM, respectively.
With `O[C@@H](CNc1cc(-c2ccc(C(F)(F)F)c(Cl)c2)nc(NC2CC2)n1)c1ccccc1` [Example 162, (1R)-2-({6-[3-Chloro-4-(trifluoromethyl)phenyl]-2-(cyclopropylamino)pyrimidin-4-yl}amino)-1-phenylethanol trifluoroacetic acid salt], the IC50 in experiment [1] turned out to be 570 nM; in experiment [2], 130 nM.
On to `C[C@H](Nc1cc(-c2ccc(OC(F)(F)F)cc2)ncn1)[C@H](O)c1ccccc1` [Example 119, (1R,2S)-1-Phenyl-2-[(6-{4-[(trifluoromethyl)oxy]phenyl}pyrimidin-4-yl)amino]propan-1-ol], for which the concentration for half-maximal inhibition (IC50) in experiment [1] was determined as 17 nM; in experiment [2] it was 55 nM.
As for `CC(C)(C#N)c1ccc(-c2cc(NC[C@H](O)c3ccccc3)ncn2)cc1` [Example 50, 2-[4-(6-{[(2R)-2-Hydroxy-2-phenylethyl]amino}pyrimidin-4-yl)phenyl]-2-methylpropanenitrile trifluoroacetic acid salt], the results for the IC50 in experiment [1] and in experiment [2] were 92 nM and 985 nM, respectively.
Turning to `CCOc1ccc(-c2cc(NCC(O)c3ccccc3)ncn2)cc1` (stereo not shown) [Example 11, 2-({6-[4-(Ethyloxy)phenyl]pyrimidin-4-yl}amino)-1-phenylethanol], the results for the concentration for half-maximal inhibition (IC50) in experiment [1] and in experiment [2] were 34 nM and 375 nM, respectively.
For `CC(C)Oc1ccc(-c2cc(NCC(O)c3ccccc3)ncn2)cc1` (stereo not shown) [Example 12, 2-[(6-{4-[(1-Methylethyl)oxy]phenyl}pyrimidin-4-yl)amino]-1-phenylethanol], the IC50 in experiment [1] turned out to be 186 nM; in experiment [2] it was 382 nM.
In the case of `OC(CNc1cc(-c2ccc(OC(F)(F)F)cc2)ncn1)c1cccc(Cl)c1` (stereo not shown) [Example 116, 1-(3-Chlorophenyl)-2-[(6-{4-[(trifluoromethyl)oxy]phenyl}pyrimidin-4-yl)amino]ethanol], the IC50 came to 90 nM in experiment [1] and 110 nM in experiment [2].
In the case of `COc1nc(NC[C@H](O)c2ccccc2)cc(-c2ccc(C(F)(F)F)c(Cl)c2)n1` [Example 164, (1R)-2-({6-[3-Chloro-4-(trifluoromethyl)phenyl]-2-methoxypyrimidin-4-yl}amino)-1-phenylethanol trifluoroacetic acid salt], the IC50 in experiment [1] turned out to be 15 nM; in experiment [2], 14 nM.
Consider `Cc1nc(NC[C@H](O)c2ccccc2)cc(-c2ccc(C(F)(F)F)c(Cl)c2)n1` [Example 73, (1R)-2-({6-[3-Chloro-4-(trifluoromethyl)phenyl]-2-methylpyrimidin-4-yl}amino)-1-phenylethanol], for which the IC50 came to 20 nM in experiment [1] and 40 nM in experiment [2].
Consider `O[C@@H](CNc1cc(-c2cc(F)cc(Cl)c2)ncn1)c1ccccc1` [Example 43, (1R)-2-{[6-(3-Chloro-5-fluorophenyl)pyrimidin-4-yl]amino}-1-phenylethanol trifluoroacetic acid salt], for which the IC50 was found to be 88 nM in experiment [1] and 446 nM in experiment [2].
For the compound `O[C@@H](CNc1cc(-c2ccc(C(F)(C(F)(F)F)C(F)(F)F)cc2)ncn1)c1ccccc1` [Example 219, (1R)-Phenyl-2-{6-[4-(1,2,2,2-tetrafluoro-1-trifluoromethyl-ethyl)-phenyl]-pyrimidin-4-ylamino}-ethanol], the half-maximal inhibitory concentration (IC50) was 2000 nM in experiment [1] and above 10000 nM in experiment [2].
As for `O[C@@H](CNc1cc(-c2ccc(C(F)(F)F)c(Cl)c2)ncn1)c1ccc(F)cc1` [Example 62, (1R)-2-({6-[3-Chloro-4-(trifluoromethyl)phenyl]ivrimidin-4-yl}amino)-1-(4-fluorophenyl)ethanol], the half-maximal inhibitory concentration (IC50) in experiment [1] stood at 2 nM; in experiment [2] it was 3 nM.
On to `OC(CNc1cc(-c2ccc(C(F)(F)F)c(Cl)c2)ncn1)c1csc2ccccc12` (stereo not shown) [Example 201, 1-(1-benzothiophen-3-yl)-2-({6-[3-chloro-4-(trifluoromethyl)phenyl]pyrimidin-4-yl}amino)ethanol], for which the IC50 in experiment [1] and in experiment [2] was 170 nM in each case.
